Experimental data as given in publication PMC7570662, “In Vivo Pharmacokinetic Analysis Utilizing Non-Targeted and Targeted Mass Spectrometry and In Vitro Assay against Transient Receptor Potential Channels of Maobushisaishinto and Its Constituent Asiasari Radix” (Molecules, 2020).
Where two headings read alike, the source gives them in different places.

What was measured:
[1] = Quantitative targeted LC-MS/MS pharmacokinetics of AR ingredients in rat plasma after oral MBST; assay type: in vivo
Description: Seven-week-old male Sprague-Dawley rats were purchased from Charles River Laboratories (Yokohama, Japan) and Japan SLC (Hamamatsu, Japan). The animals were housed under a temperature of 23 °C ± 3 °C and relative humidity of 50% ± 20%, with 12-h/12-h light/dark cycle and allowed free access to water and standard laboratory food (MF, Oriental Yeast Co., Ltd., Tokyo, Japan). The animals were used in experiments following habituation for several days.
(§1) Extract powders of AR or MBST were suspended in distilled water and orally administered to rats having fasted for approximately 16 h. The dose of AR was set at 2 g/kg, and the MBST doses were set at 1 and 2 g/kg. 1 g/kg MBST contained 578 µg/kg, 147 µg/kg, 226 µg/kg, 426 µg/kg asarinin, sesamin, methyl kakuol, and amide A, respectively. The doses were chosen based on a previous pharmacological study of MBST using rats.
Blood samples were centrifuged at 1700× g at 4 °C for 15 min to obtain plasma, of which samples were then stored at ≤−75 °C until analysis.
To quantify the plasma concentration of the AR components identified by the non-targeted analysis, the plasma samples at 0–24 h after MBST administration (1 or 2 g/kg) were supplied to targeted LC-MS/MS analysis in SRM mode with electrospray ionization.
For the quantification of methyl kakuol, amide A, asarinin, and sesamin in plasma, 100 µL of MBST-treated rat plasma was mixed with 20 µL of methanol (as the vehicle of the working solution described below) and 20 µL of internal standard niflumic acid (2 or 20 ng/mL). To prepare the calibration curve, the same volumes of blank plasma and various concentrations of working solution (final plasma concentration, 0.02–200 ng/mL) were used instead of the MBST-treated rat plasma and methanol. Finally, 500 µL of methanol was added for deproteinization. The mixture was centrifuged at 7000× g at 4 °C for 5 min. The supernatant was dried using a centrifugal evaporator. The dried residue was dissolved in 60 or 80 μL of the initial LC mobile phase which was composed of 5 mmol/L ammonium acetate in water/methanol (70/30, v/v), and then, a 5 or 10 μL aliquot was injected into the LC-MS/MS system. The injected sample was chromatographically separated using a YMC-Pack ODS-AQ column (2.0 ×150 mm I.D., 3-μm particle size; GL Sciences, Tokyo, Japan) at 30 °C. The mobile phase consisted of solution A (5 mmol/L ammonium acetate) as well as solution B (methanol), with a gradient of solution B (30%, 0 min; 70%, 25 min; 95%, 25.01–30 min; 30%, 30.01–35 min; v/v) at a flow rate of 0.3 mL/min. In brief, the compounds were analyzed using optimal MS/MS parameters as follows: methyl kakuol (m/z 209.056/176.1), amide A (m/z 248.174/57.1), asarinin (m/z 372.123/173.1), and sesamin (m/z 372.118/233.1). The calibration ranges for methyl kakuol, amide A, asarinin, and sesamin were 0.5–100 ng/mL, 0.5–200 ng/mL, 0.1–200 ng/mL, 0.1–200 ng/mL, respectively.
The AR ingredient levels in the plasma are presented as the mean + standard deviation. Pharmacokinetic parameters of plasma AR ingredients, such as the Cmax, AUC0-last, were calculated by non-compartmental analysis using the Phoenix WinNonlin software (Certara L.P., St. Louis, MO, USA). The concentration data were pooled per each time point; then, the mean concentration–time data were subjected to the non-compartmental analysis.

[2] = tested on: LPS-induced NO production in BV-2 microglial cells; parameters: method as in PMID 18293448; conditions: cited from earlier work
[3] = Qualitative non-targeted LC-HRMS analysis of AR compounds in rat plasma after oral AR or MBST; assay type: in vivo; conditions: for Detection in plasma of rats treated with AR or MBST (non-targeted analysis): po
Description: as §1
According to previous pharmacokinetic studies of herbal medicines, many of the components were quickly absorbed into the bloodstream, thereby providing the rationale for a sampling time at 1 h. Blood was centrifuged at 1200× g at 4 °C for 30 min to obtain plasma; then, the sample was stored at −80 °C until LC-HRMS analysis. […]
The plasma samples were collected at 1 h after MBST administration in case of both the qualitative (non-targeted) analysis and the quantitative (targeted) analysis.
The plasma samples of AR- or MBST-treated rats collected at 1 h post-administration were pretreated by deproteinization using methanol before the LC-HRMS analysis as follows: 100 µL plasma sample was mixed with 500 µL methanol, and the resultant solution was vortexed for 2 min. The mixture was centrifuged at 7000× g at 4 °C for 5 min. The supernatant was dried using a centrifugal evaporator, and the dried residue was dissolved in 100 μL of the initial LC mobile phase which is composed of 0.1 vol% formic acid in water/acetonitrile (99.9/0.1, v/v) and recentrifuged at 7000× g at 4 °C for 5 min. Finally, a 5 μL aliquot of the supernatant was injected into the LC-HRMS system comprised of an Acquity Ultra-Performance Liquid Chromatography System (Waters, Milford, MA, USA) and a Xevo G2-XS quadrupole time-of-flight MS (Waters) and was chromatographically separated using an ACQUITY UPLC HSS T3 column (2.1 × 150 mm I.D., 1.8-μm particle size; Waters) with an ACQUITY UPLC HSS T3 VanGuard Pre-column (2.1 mm × 5 mm I.D., 1.8-μm particle size; Waters) at 40 °C. The mobile phase consisted of solution A (0.1% formic acid, v/v) and solution B (acetonitrile) with a gradient of solution B (0.1%, 0 min; 99%, 24 min; v/v) at a flow rate of 0.4 mL/min. The analysis of the mass spectrometer fit with an electrospray ionization probe with sensitivity mode was performed for both the positive and negative ion mode. The resolution of the mass spectrometer was set at >20,000. For MS^E experiments, two acquisition functions with different collision energies were created: a low-energy function with a collision energy of 6 eV and a high-energy function with collision energy ranging from 15 to 40 eV.

[4] = male, Sprague-Dawley, rat, in vivo, po, 1 g/kg
[5] = male, Sprague-Dawley, rat, in vivo, po, 2 g/kg

C/C=C/C=C\CC/C=C/C=C/C(=O)NCC(C)C [Amide A, (2E,4E,8Z,10E)-N-isobutyl-2,4,8,10-dodecatetraenamide]
AUC(0-t) ([1]; male, Sprague-Dawley, rat plasma, oral MBST 1 g/kg, read-out: AUC0-last): 4.87 ng·h/mL
Cmax ([1]; male, Sprague-Dawley, rat plasma, oral MBST 1 g/kg, read-out: Cmax): 4.08 ng/mL
k el ([1]; male, Sprague-Dawley, rat plasma, oral MBST 1 g/kg, read-out: kel (converted)): 0.000211 s⁻¹
half-life ([1]; male, Sprague-Dawley, rat plasma, oral MBST 1 g/kg, read-out: t1/2 (converted)): 54.7 min
Tmax ([1]; male, Sprague-Dawley, rat plasma, oral MBST 1 g/kg, read-out: tmax): 30 min
AUC(0-t) ([1]; male, Sprague-Dawley, rat plasma, oral MBST 2 g/kg, read-out: AUC0-last): 18.4 ng·h/mL
Cmax ([1]; male, Sprague-Dawley, rat plasma, oral MBST 2 g/kg, read-out: Cmax): 6.07 ng/mL
k el ([1]; male, Sprague-Dawley, rat plasma, oral MBST 2 g/kg, read-out: kel (converted)): 6.58e-05 s⁻¹
half-life ([1]; male, Sprague-Dawley, rat plasma, oral MBST 2 g/kg, read-out: t1/2 (converted)): 175 min
Tmax ([1]; male, Sprague-Dawley, rat plasma, oral MBST 2 g/kg, read-out: tmax): 15 min
Effect on LPS-induced NO production in BV-2 microglial cells [2]: inhibitory effect
Metabolites found in AR- or MBST-treated plasma ([3]; rat, in vivo): metabolized into an alkylated and a water adducted + alkylated form

c1cc2c(cc1[C@H]1OC[C@H]3[C@@H]1CO[C@H]3c1ccc3c(c1)OCO3)OCO2 [Asarinin, (−)-Asarinin]
AUC(0-t) [1, 4]: 16.3 ng·h/mL
Cmax [1, 4]: 8.42 ng/mL
Tmax [1, 4]: 15 min
half-life [1, 4]: 91.2 min
k el [1, 4]: 0.000127 s⁻¹
AUC(0-t) [1, 5]: 38.6 ng·h/mL
Cmax [1, 5]: 14.7 ng/mL
Tmax [1, 5]: 15 min
half-life [1, 5]: 176 min
k el [1, 5]: 6.58e-05 s⁻¹
Detection in plasma of rats treated with AR or MBST (non-targeted analysis) ([3]; rat, in vivo): not detected

CCC(=O)c1cc2c(cc1OC)OCO2 [Methyl kakuol]
AUC0-last ([1]; rat plasma, oral MBST 1 g/kg): 22.5 ng·h/mL
Cmax ([1]; rat plasma, oral MBST 1 g/kg): 26.7 ng/mL
Tmax ([1]; rat plasma, oral MBST 1 g/kg): 30 min
k el ([1]; rat plasma, oral MBST 1 g/kg): 0.000425 s⁻¹
t1/2 ([1]; rat plasma, oral MBST 1 g/kg): 27.1 min
AUC0-last ([1]; rat plasma, oral MBST 2 g/kg): 214 ng·h/mL
Cmax ([1]; rat plasma, oral MBST 2 g/kg): 98.2 ng/mL
Tmax ([1]; rat plasma, oral MBST 2 g/kg): 60 min
k el ([1]; rat plasma, oral MBST 2 g/kg): 0.000153 s⁻¹
t1/2 ([1]; rat plasma, oral MBST 2 g/kg): 75.6 min
AR-Treated Rat Plasma (detection of compound) ([3]; rat plasma 1 h after oral 2 g/kg AR, n = 1, LC-HRMS): + (The number of plus signs represents the sample number in which the compound was detected among AR-treated rat plasma (n = 1) and MBST-treated rat plasma (n = 3))
MBST-Treated Rat Plasma (detection of compound) ([3]; rat plasma 1 h after oral 2 g/kg MBST, n = 3, LC-HRMS): + + + (The number of plus signs represents the sample number in which the compound was detected among AR-treated rat plasma (n = 1) and MBST-treated rat plasma (n = 3))
Metabolites found in AR- or MBST-treated plasma ([3]; rat plasma, non-targeted LC-HRMS, phase I and II metabolite exploration): metabolized into a sulfate conjugate and a dehydrogenated + sulfate conjugate form

c1cc2c(cc1[C@H]1OC[C@H]3[C@@H]1CO[C@@H]3c1ccc3c(c1)OCO3)OCO2 [Sesamin]
AUC(0-t) [1, 4]: 11.9 ng·h/mL
Cmax [1, 4]: 5.63 ng/mL
Tmax [1, 4]: 30 min
half-life [1, 4]: 97.8 min
k el [1, 4]: 0.000118 s⁻¹
AUC(0-t) [1, 5]: 28.7 ng·h/mL
Cmax [1, 5]: 9.44 ng/mL
Tmax [1, 5]: 15 min
half-life [1, 5]: 179 min
k el [1, 5]: 6.44e-05 s⁻¹
Effect on LPS-induced NO production in BV-2 microglial cells [2]: inhibitory effect
Detection in plasma of rats treated with AR or MBST (non-targeted analysis) ([3]; rat, in vivo): not detected
